Source: patent publication US20230049576A1, “GLUTATHIONE-CONTAINING COMPOSITION” (priority 2019, published 2023)

Legend:
thrombin = thrombin (Homo sapiens, UniProt P00734); test: Measurement of thrombin activity (Rox prothrombin kit, chromogenic substrate, absorbance 405 nm); assay type: biochemical; settings: glutathione 500 μg/ml to 2.5 mg/ml added to 40 ng/ml prothrombin; thrombin activator and substrate added; absorbance 405 nm every 40 seconds; FIG. 1
Description: A Rox prothrombin kit (Distributor: Rossix) was used for the measurement of thrombin activity. After glutathione (Distributor: Nacalai Tesque, Inc.) was added to a 40 ng/ml solution of prothrombin (Distributor: Invitrogen) at a concentration of 500 μg/ml to 2.5 mg/ml, the thrombin activator and thrombin substrate included in the kit were added and thrombin activity was measured.

cultured keratinocytes = settings: Cryj1 100 ng/ml with glutathione 5 μg/ml
Description: Culture keratinocytes (Distributor: Kurabo) were cultured in the EPILIFE-KG2 medium (Distributor: Kurabo) for two days in a humidified atmosphere at 37° C. For the confluent culture, the medium was replaced with EPILIFE-KG2+Ca1.8 mM (Distributor: Kurabo), and then after 28 to 48 hours of incubation, with EPILIFE-KG2 +Cal containing 5 μM of Fura2 AM (Distributor: life technology), following by one hour of culturing. Then, it was replaced with a buffer (pH 7.4) containing NaCl 150 mM, KCI 5 mM, CaCl2 1.8 mM, MgCl2 1.2 mM, HEPES 25 mM, and D-glucose 10 mM, and Cryj1 (Distributor: HAYASHIBARA) was added to the buffer at the concentration of 100 ng/ml alone, or with glutathione (Distributor: Nacalai Tesque, Inc.) (5 μg/ml). Fluorescence was measured with a fluorescence microscope to measure changes in the intracellular calcium concentration.
The value of intracellular calcium concentration about 2 minutes after the addition of Cryj1 was calculated and quantified using the Aqua Cosmos software.

[1] = test system: epidermal permeation barrier; settings: previous study, Non-patent Document 2, Patent Document 1; cited from earlier work

SMILES: N[C@@H](CCC(=O)N[C@@H](CS)C(=O)NCC(=O)O)C(=O)O [Glutathione, glutathione]
- thrombin activity (substrate decomposition rate) (thrombin): inhibit thrombin activity in a dose-dependent manner
- calcium imaging over time (excitation of fluorescence) (cultured keratinocytes; FIG. 2): suppresses the excitation
- intracellular calcium concentration about 2 minutes after the addition of Cryj1 (cultured keratinocytes; FIG. 3): significantly suppresses the calcium response elicited by Cryj1

SMILES: NC[C@H]1CC[C@H](C(=O)O)CC1 [tranexamic acid]
- delay in thrombin-mediated recovery of the epidermal permeation barrier induced by Cryj1 [1]: blocks the delay in thrombin-mediated recovery of the epidermal permeation barrier
